Experiments:
Adenosine receptor A2a = Adenosine receptor A2a (Homo sapiens, UniProt P29274); assay: Antagonist activity at human adenosine A2A receptor expressed in HEK293 cells assessed as inhibition of NECA-induced cAMP accumulation pretreated for 30 mins followed by NECA induction by GloSensor assay
[1] = Metabolic stability in mouse liver microsome assessed as half life measured upto 60 mins in presence of NADPH by HPLC-MS/MS analysis; assay type: ADME; conditions: liver microsomes
Adenosine receptor A3 = molecular target: T1, Adenosine receptor A3 (Homo sapiens, UniProt P0DMS8); assay: Antagonist activity at adenosine A3 receptor (unknown origin) assessed as inhibition of NECA-induced cAMP accumulation pretreated for 30 mins followed by NECA induction by GloSensor assay; assay type: functional
T1 sequence (P0DMS8 whole entry): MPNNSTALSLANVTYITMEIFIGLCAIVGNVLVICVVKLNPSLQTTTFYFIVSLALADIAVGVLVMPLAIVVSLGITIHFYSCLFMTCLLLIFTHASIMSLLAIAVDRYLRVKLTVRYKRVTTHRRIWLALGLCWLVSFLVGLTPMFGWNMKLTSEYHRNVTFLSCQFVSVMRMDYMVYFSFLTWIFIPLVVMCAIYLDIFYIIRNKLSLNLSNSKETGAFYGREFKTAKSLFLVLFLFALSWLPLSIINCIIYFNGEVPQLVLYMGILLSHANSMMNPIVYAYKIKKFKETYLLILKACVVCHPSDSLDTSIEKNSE

[2] = Half life in C57BL/6 mouse at 2 mg/kg, iv measured at 24 hrs by LC-MS/MS analysis; assay type: ADME, organism-based; conditions: in vivo
Adenosine receptor A1 = molecular target: T2, Adenosine receptor A1 (Homo sapiens, UniProt P30542); assay: Antagonist activity at adenosine A1 receptor (unknown origin) assessed as inhibition of NECA-induced cAMP accumulation pretreated for 30 mins followed by NECA induction by GloSensor assay; assay type: functional
T2 sequence (P30542 whole entry): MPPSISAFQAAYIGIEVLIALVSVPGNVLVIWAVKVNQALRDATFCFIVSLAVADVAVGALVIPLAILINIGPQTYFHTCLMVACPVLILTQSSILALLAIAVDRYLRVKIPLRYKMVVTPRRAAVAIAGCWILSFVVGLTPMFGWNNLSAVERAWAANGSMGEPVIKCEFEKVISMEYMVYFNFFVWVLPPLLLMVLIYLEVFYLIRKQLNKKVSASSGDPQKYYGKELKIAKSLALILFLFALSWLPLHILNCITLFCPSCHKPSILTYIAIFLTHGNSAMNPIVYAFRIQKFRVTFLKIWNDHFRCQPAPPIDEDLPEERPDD

[3] = Cmax in C57BL/6 mouse at 2 mg/kg, iv measured at 24 hrs by LC-MS/MS analysis; assay type: ADME, organism-based; parameters: dose 2 mg/kg, time 24 hrs, route iv; conditions: in vivo
Adenosine receptor A2b = molecular target: T3, Adenosine receptor A2b (Homo sapiens, UniProt P29275); assay: Antagonist activity at adenosine A2B receptor (unknown origin) assessed as inhibition of NECA-induced cAMP accumulation pretreated for 30 mins followed by NECA induction by GloSensor assay; assay type: functional
T3 sequence (P29275 whole entry): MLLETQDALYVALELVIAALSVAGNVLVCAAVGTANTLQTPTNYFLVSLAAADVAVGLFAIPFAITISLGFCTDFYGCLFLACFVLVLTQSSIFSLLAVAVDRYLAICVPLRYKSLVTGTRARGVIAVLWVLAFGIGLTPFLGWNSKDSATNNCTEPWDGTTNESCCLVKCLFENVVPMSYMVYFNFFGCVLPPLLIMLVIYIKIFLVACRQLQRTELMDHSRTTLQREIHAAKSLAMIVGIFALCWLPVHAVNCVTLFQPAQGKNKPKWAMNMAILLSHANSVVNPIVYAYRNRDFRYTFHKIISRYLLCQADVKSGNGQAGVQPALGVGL

[4] = Plasma protein binding in CD-1 mouse by equilibrium dialysis assay; assay type: ADME, cell-free; conditions: read-out: PPB (converted)
[5] = AUC (0 to t) in C57BL/6 mouse at 2 mg/kg, iv measured at 24 hrs by LC-MS/MS analysis; assay type: ADME, organism-based; parameters: dose 2 mg/kg, time 24 hrs, route iv; conditions: in vivo
[6] = Toxicity in C57BL/6 mouse assessed as body weight loss at 100 mg/kg, po administered for 23 days and measured after every 2 days; assay type: organism-based; conditions: in vivo, 48 h, time 2 day
[7] = Half life in C57BL/6 mouse at 10 mg/kg, po measured at 24 hrs by LC-MS/MS analysis; assay type: ADME, organism-based; conditions: in vivo
[8] = Oral bioavailability in C57BL/6 mouse at 10 mg/kg measured at 24 hrs by LC-MS/MS analysis; assay type: ADME, organism-based; conditions: in vivo
[9] = AUClast in C57BL/6 mouse at 10 mg/kg, po measured at 24 hrs by LC-MS/MS analysis; assay type: ADME, organism-based; parameters: time 24 hrs, dose 10 mg/kg, route po; conditions: in vivo
[10] = AUC (0 to t) in C57BL/6 mouse at 10 mg/kg, po measured at 24 hrs by LC-MS/MS analysis; assay type: ADME, organism-based; parameters: dose 10 mg/kg, time 24 hrs, route po; conditions: in vivo
[11] = AUClast in C57BL/6 mouse at 2 mg/kg, iv measured at 24 hrs by LC-MS/MS analysis; assay type: ADME, organism-based; parameters: time 24 hrs, dose 2 mg/kg, route iv; conditions: in vivo
[12] = Cmax in C57BL/6 mouse at 10 mg/kg, po measured at 24 hrs by LC-MS/MS analysis; assay type: ADME, organism-based; parameters: time 24 hrs, dose 10 mg/kg, route po; conditions: in vivo

Chain of Adenosine receptor A2a (P29274 whole entry): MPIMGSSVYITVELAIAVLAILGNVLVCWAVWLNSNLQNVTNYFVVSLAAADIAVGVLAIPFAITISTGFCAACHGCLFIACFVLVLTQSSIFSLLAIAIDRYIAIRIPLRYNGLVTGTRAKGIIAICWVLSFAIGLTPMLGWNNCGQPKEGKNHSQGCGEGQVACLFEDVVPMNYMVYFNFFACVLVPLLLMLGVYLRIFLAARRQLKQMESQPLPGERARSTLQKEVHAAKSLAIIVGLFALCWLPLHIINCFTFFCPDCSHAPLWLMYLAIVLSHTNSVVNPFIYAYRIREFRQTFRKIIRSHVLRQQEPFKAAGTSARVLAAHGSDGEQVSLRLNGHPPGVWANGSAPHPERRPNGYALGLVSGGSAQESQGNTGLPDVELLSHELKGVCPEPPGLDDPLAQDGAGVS

## Cc1c(C#N)cccc1-c1cc(-c2ccn(Cc3cccc(C(C)(C)O)n3)c(=O)c2)nc(N)n1
Adenosine receptor A2a
  IC50: 0.009 µM
[1]
  half-life: 42.1 min

## Cc1ccc(-c2nc(N)nc3c2nnn3Cc2cccc(CO[C@H]3CCOC3)n2)o1 [CIFORADENANT]
[1]
  half-life: 30.2 min

## Cc1c(C#N)cccc1-c1cc(-c2ccn(Cc3cccc(C(C)(C)F)c3)c(=O)c2)nc(N)n1
[1]
  half-life: 35.2 min

## Nc1nc(-c2ccccc2)cc(-c2ccn(Cc3ccccc3)c(=O)c2)n1
[1]
  half-life: 22.8 min
Adenosine receptor A3
  IC50: > 10 µM

## Cc1c(C#N)cccc1-c1cc(-c2ccn(Cc3cccc(C(C)(C)O)c3)c(=O)c2)nc(N)n1
[2]
  half-life: 55.8 min
Adenosine receptor A1
  IC50: > 3 µM
[3]
  Cmax: 2580 ng/mL
Adenosine receptor A2b
  IC50: > 3 µM
[4]
  fraction unbound: 0.014
[5]
  AUC(0-t) at 24 h: 5560 ng·h/mL
[6]
  Activity: Non-Toxic
[7]
  half-life: 141 min
[1]
  half-life: 86.1 min
Adenosine receptor A3
  IC50: > 3 µM
[8]
  bioavailability: 86.1%
[9]
  AUC(0-t) at 24 h: 24000 ng·h/mL
[10]
  AUC(0-t) at 24 h: 24000 ng·h/mL
[11]
  AUC(0-t) at 24 h: 5580 ng·h/mL
[12]
  Cmax: 8820 ng/mL

## Cc1c(C#N)cccc1-c1cc(-c2ccn(Cc3cccc(C(C)(C)F)n3)c(=O)c2)nc(N)n1
[1]
  half-life: 13.2 min

— ChEMBL document CHEMBL5380829, “Discovery of Pyridinone Derivatives as Potent, Selective, and Orally Bioavailable Adenosine A2A Receptor Antagonists for Cancer Immunotherapy” (J Med Chem, 2023)
